According to patent US8119671B2, “Isoxazoline-substituted benzamide compound and pest control agent” (Nissan Chemical Industries, Ltd., priority 2007, dated 2012):

Tests used:
Format in all cases: in vivo
Helicoverpa armigera = assay: Test Example 4: Mortality Test for Helicoverpa armigera; conditions: 144 h
Method: A 10% emulsifiable concentrate of the compound of the present invention (depending on the type of the compound, a 10% wettable powder was subjected to the test) was diluted with water containing a spreader to prepare a drug solution in a concentration of 100 ppm. In this drug solution, a leaf of canarium album was immersed for about 10 seconds and was air-dried and then put into a petri dish. In the petri dish, one 2 instar larva of Helicoverpa armigera per petri dish was released and the petri dish was capped and stored in a thermostat room of 25° C. The number of killed larvae after 6 days was measured and the mortality was calculated from the same calculation formula as that in Test Example 1. Here, the test was carried out with 2 replications.

Spodoptera litura = assay: Test Example 2: Mortality Test for Spodoptera litura; conditions: 144 h
Method: (§1) A 10% emulsifiable concentrate of the compound of the present invention (depending on the type of the compound, a 10% wettable powder was subjected to the test) was diluted with water containing a spreader to prepare a drug solution in a concentration of 10 ppm. In this drug solution, a leaf of canarium album was immersed for about 10 seconds and was air-dried and then put into a petri dish. In the petri dish, five 2 instar larvae of Spodoptera litura per petri dish were released and the petri dish was capped and stored in a thermostat room of 25° C. The number of killed larvae after 6 days was measured and the mortality was calculated from the same calculation formula as that in Test Example 1. Here, the test was carried out with two replications.

Tetranychus urticae = assay: Test Example 14: Mortality Test for Tetranychus urticae; conditions: 144 h
Method: In a styrol cup having an inner diameter of 7 cm, a wet filtration paper was laid, and on the paper, a leaf of kidney bean cut out so as to have the same diameter as the inner diameter of the cup was laid, followed by inoculating 10 larvae of Tetranychus urticae per leaf to the leaf. A 10% emulsifiable concentrate of the compound of the present invention (depending on the type of the compound, a 10% wettable powder was subjected to the test) was diluted with water containing a spreader to prepare a drug solution in a concentration of 500 ppm. The drug solution was dusted using a rotary dusting tower in an amount of 2.5 mL per styrol cup and the cup was capped and stored in a thermostat room of 25° C. The number of killed larvae after 6 days was measured and the mortality was calculated from the same calculation formula as that in Test Example 1. Here, the test was carried out with two replications.

Nilaparvata lugens = assay: Test Example 8: Mortality Test for Nilaparvata lugens; conditions: 144 h, drug solution 500 ppm, Oryza sativa leaf sheath immersed, 2 instar larvae, after 6 days
Method: A 10% emulsifiable concentrate of the compound of the present invention (depending on the type of the compound, a 10% wettable powder was subjected to the test) was diluted with water containing a spreader to prepare a drug solution in a concentration of 500 ppm. In this drug solution, a leaf sheath of Oryza sativa was immersed for about 10 seconds and was air-dried and then put into a test tube. In the test tube, five 2 instar larvae of Nilaparvata lugens per test tube were released and the test tube was capped with a sponge and stored in a thermostat room of 25° C. The number of killed larvae after 6 days was measured and the mortality was calculated from the same calculation formula as that in Test Example 1. Here, the test was carried out with two replications.

Bemisia argentifolii = assay: Test Example 9: Mortality Test for Bemisia argentifolii; conditions: in Solanum lycopersicum, 144 h
Method: In a styrol cup having an inner diameter of 7 cm, a wet filtration paper was laid, and on the paper, a cut-out leaf of tomato on which Bemisia argentifolii laid eggs (10 eggs/leaf) was laid. A 10% emulsifiable concentrate of the compound of the present invention (depending on the type of the compound, a 10% wettable powder was subjected to the test) was diluted with water containing a spreader to prepare a drug solution in a concentration of 500 ppm. The drug solution was dusted using a rotary dusting tower in an amount of 2.5 mL per styrol cup and the cup was capped and stored in a thermostat room of 25° C. The number of killed larvae after 6 days was measured and the mortality was calculated from the same calculation formula as that in Test Example 1. Here, the test was carried out with two replications.

[1] = tested on: Frankliniella occidentalis; assay: Test Example 18: Mortality Test for Frankliniella occidentalis (Comparative Test 2); conditions: 48 h
Method: In a styrol cup having an inner diameter of 7 cm, a wet filtration paper was laid, and on the paper, a leaf of kidney bean cut out so as to have the same diameter as the inner diameter of the cup was laid, followed by inoculating ten 1 instar larvae of Frankliniella occidentalis per leaf to the leaf. 10% emulsifiable concentrates of the compound of the present invention and a comparative compound were diluted with water containing a spreader to prepare drug solutions in a predetermined concentration. The drug solutions were dusted using a rotary dusting tower in an amount of 2.5 mL per styrol cup, and the cup was capped and stored in a thermostat room of 25° C. The number of killed larvae after 2 days was measured and the mortality was calculated from the following calculation formula: Mortality (%)=(number of killed larvae/number of released larvae)×100. Here, the test was carried out with two replications.

Ctenocephalides felis = assay: Test Example 15: Mortality Test for Cat Flea; conditions: 96 h
Method: To the bottom surface and the side surface of a petri dish having an inner diameter of 5.3 cm, 400 μL of an acetone solution in which 40 mg of the compound of the present invention was dissolved in 40 mL of acetone (concentration: 1,000 ppm) was applied and the acetone was volatilized to form a thin film of the compound of the present invention on the inner wall of the petri dish. The inner wall of the used petri dish has an area of 40 cm^2, so that the amount of the applied drug is 1 μg/cm^2. In the petri dish, 10 Ctenocephalides felis imagines (male and female were mixed) were released and the petri dish was capped and stored in a thermostat room of 25° C. The number of killed larvae after 4 days was measured and the mortality was calculated from the same calculation formula as that in Test Example 1. Here, the test was carried out on the single sample.

Plutella xylostella = assay: Test Example 1: Mortality Test for Plutella xylostella; conditions: 144 h
Method: as §1, with “Plutella xylostella” for “Spodoptera litura”, “following” for “same”, “formula: Mortality (%)=(number of killed larvae/number of released larvae)×100.” for “formula as that in Test Example 1.”

Cc1cc(C2=NOC(c3cc(Cl)cc(Cl)c3)(C(F)(F)F)C2)ccc1C(=O)NC1(c2ccccn2)CC1 (stereo not drawn) [No. 1-007, 4-[5-(3,5-Dichlorophenyl)-5-trifluoromethyl-4,5-dihydroisoxazole-3-yl]-2-methyl-N-[1-(2-pyridyl)cyclopropyl]benzamide] was tested, and the mortality at 100 ppm (Helicoverpa armigera) was ≥ 80%, the mortality at 10 ppm (Spodoptera litura) was ≥ 80% and the mortality at 500 ppm (Tetranychus urticae) was ≥ 80%. For the same molecule, the mortality at 500 ppm (Nilaparvata lugens) was ≥ 80%, the mortality at 500 ppm (Bemisia argentifolii) was ≥ 80% and the mortality at 0.1 ppm [1] was 0%. For the same molecule, the mortality at 0.3 ppm [1] was 0%, the mortality at 1 ppm [1] was 38.1% and the mortality at 3.3 ppm [1] was 96.3%. For the same molecule, the mortality at 10 ppm [1] was 100%, the mortality at 1000 ppm, 1 µg/cm2 (Ctenocephalides felis) was ≥ 80% and the mortality at 10 ppm (Plutella xylostella) was ≥ 80%.
